Test results from patent publication US8476240B2, “Histidine related compounds for identifying and blocking amyloid beta ion channels” (priority 2008, dated 2013).
Entries after “also recorded” stand apart in the source; their conditions may differ. Like-named read-outs stand apart in the source and are kept apart here. Residues, ends and D or L forms follow the SMILES beside them.

Assays:
Aβ channel = experiment: Aβ channels incorporated into planar lipid bilayers, ionic current recording; type: biochemical; conditions: for blocking of the flow of ionic charges conducted by Aβ channels: His 41.5 μM, NAHIS compounds 16.6 μM (FIG. 5B); for blocking of Aβ channel current activity / reversibility of Aβ channel blockage after washing the chamber: planar lipid bilayer; for blocking of Aβ channel current activity: zero membrane potential; for time to reduce the flow of ionic charges through the membrane by 50%: 16.6 μM; for reversibility of Aβ channel blockage after washing the chamber: after washing off the blocker; for time to block the flow of ionic charges through Aβ channels: 41.5 μM (FIG. 5B left plot)
Procedure: Planar Lipid Bilayer Methodology: A suspension of palmitoyloleoyl phosphatidylserine and palmitoyloleoyl phosphatidylethanolamine, (Avanti, Alabaster, Ala.) 1:1, in η-decane was prepared. This suspension was applied to an orifice of about 100-120 μm in diameter with a Teflon film separating two compartments, 1.2 ml volume each. The ionic solutions in the compartments contained asymmetrical concentrations of CsCl (200cis/50trans mM) and symmetrical 0.5 mM CaCl2 and 5 mM K-HEPES, pH 7. The two ionic compartments were electrically connected to the input of a voltage clamp amplifier. Current was recorded using a patch clamp amplifier and data were stored on computer disk memory. Off-line analysis of the channel activity was carried out using the software package pClamp (Axon Instruments, Foster City, Calif.). Incorporation of Aβ peptide into the bilayer was obtained by adding an aliquot of proteoliposome (Aβ-liposome) suspension to the solution in the cis side of the planar lipid bilayer chamber and stirring.
Preparation of Proteoliposomes: Liposomes were prepared by hydration of air-dried palmitoyloleoyl phosphatidylserine (10 mg) with 1 M potassium aspartate, pH 7.0 (1 ml), followed by water sonication for 5 min. The liposome suspension (50 μl) was mixed with a stock aqueous solution of Aβ peptide (1 mg/ml, obtained from Bachem, Torrance, Calif. and from AnaSpec, San Jose, Calif.), followed by sonication.
Based on the theoretical model proposed by Durell et al. (1994), the predicted pore region of the Aβ channel is made of the hydrophilic structure composed of residues 1-16. The structure formed by a radial polymer of four to six Aβ subunits predicts that rings of His residues surround and form the path for the ions passing through the pore. […] This interaction will block the entrance to the Aβ pore, and consequently affect the flow of current through the Aβ channel. Therefore, various compounds of known His coordinating capacity were studied for their interaction with Aβ channels incorporated into planar lipid bilayers. No membrane potential difference was applied to the lipid bilayers, to avoid any disturbing effect the membrane potential may have on the channel activity and in the conformations of the channel.
Here the effectiveness of the His-coordinating and His-related compounds was studied in terms of the time required to block the Aβ channel currents. […] When Aβ channels are incorporated into artificial membranes, they form multi-conductance systems. This is manifested by frequently fluctuating conductance between specific levels. […] The results were analyzed by an alternative procedure that quantifies the total ionic current flowing through the Aβ channel incorporated into the artificial lipid membrane at any given time. For this purpose, we integrated the total ionic current flowing through the membrane and averaged the amount of charge conducted in consecutive time intervals of 8 msec duration.
Planar Lipid Bilayer Methodology and Preparation of Proteoliposomes: The experiments were performed as described previously except that the suspension of palmitoyloleoyl phosphatidylserine and palmitoyloleoyl phosphatidylethanolamine was applied to an orifice of about 80-100 μm in diameter with a Teflon film separating two compartments. In addition, the liposome suspension (50 μl) was mixed with a stock aqueous solution of Aβ40 (1 mg/ml; obtained from Invitrogen, Carlsbad, Calif.).

PC12 cells [1] = experiment: Protection of PC12 cells from Aβ cytotoxicity (LDH release / cell viability assay); type: cell-based
Procedure: Previous studies have shown that the native peptide fragments from the Aβ polypeptide, NA4 (SEQ ID NO: 3) and NA7 (SEQ ID NO: 4), are able to block Aβ channel activity and protect cells from Aβ cytotoxicity. […] The concentration required for 50% protection (half maximal effective concentration, EC50) for NAHIS04 was less than 1 μM (Panel B). It was also between 2-3 times less than the EC50 for either NA4 or NA7.

[2] = system: PC12 cells, cortical and hippocampal neurons; experiment: cells; conditions: for concentration required for 50% protection (EC50): three different types of cells, three days; for concentration required for 50% protection (EC50) / protection of cells from Aβ cytotoxicity: Aβ peptide 5 μM; for protection of cells from Aβ cytotoxicity: three days of incubation, XTT and LDH, three cell types
Procedure: Cell culture: PC 12 cells, derived from a transplantable rat pheochromocytoma (ATCC # CRL 1721), were cultured in the recommended ATCC medium. Primary cultures of hippocampal and cortical neurons from […] rat brains were grown in neurobasal medium/B27 (GIBCO). For neurons preparation, pregnant rats were anesthetized and killed to extract the fetuses. For pain alleviation, the animals were anesthetized following recommendations in the 2000 Report of the American Veterinary Medical Association Panel on Euthanasia. Brains from the fetuses were dissected out and neuronal cell cultures prepared as in a previously described protocol (Simakova and Arispe, 2006).
Cell viability assays: The percentage of cells protected from Aβ-induced cell death by various treatments was evaluated by means of a colorimetric XTT assay (Cell Proliferation Kit II, Roche, Mannheim, Germany). The cytotoxicity was also directly measured by the release of lactate dehydrogenase (LDH) from the cytosol into the media (Cytotoxicity Detection Kit (LDH), Roche, Mannheim, Germany).
Cell viability was examined using two different assays. These were the colorimetric XTT assay that quantifies metabolically active cells, and an assay that measures the release of lactate dehydrogenase (LDH) from the cytosol into the media, which evaluates the cell membrane integrity. […] The left panels (A, C and E) show the results from the XTT assay expressed as a percentage of cytotoxicity, and the right panels (B, D and F) show the results from the measurements of LDH released from cells into the media expressed as a percentage of protection of cells.

PC12 cells [3] = experiment: Aβ-induced intracellular free calcium change in FURA-2AM loaded PC12 cells; type: cell-based, rat; conditions: Aβ 7.66 μM; for block of Aβ-induced intracellular calcium increase: compound 16.66 μM, 15 minute time course
Procedure: Intracellular Free Calcium measurements: Cells were plated on glass cover slips coated with poly-L-lysine and loaded with 2 μM FURA-2AM (Molecular Probes) calcium sensitive probe in incubation buffer (135 mM NaCl, 5 mM KCl, 2.5 mM CaCl2, 1.2 mM MgCl2, 10 mM glucose, 10 mM Hepes, pH 7.4). After 30 min of loading period, cells were treated with Aβ (7.66 μM). The time course of changes in the emission from FURA-2AM was observed using an inverted epi-fluorescence/phase contrast microscope equipped with a low-light level integrating CCD camera+microphotometer assembly (InCy I/P-2 Imaging & Photometry System, Intracellular Imaging INC.)
A 15 minute time course experiment was performed of the intracellular free calcium change in six FURA-2AM loaded PC 12 cells before and after the addition of Aβ (7.66 μM) and Aβ+His-related compound (16.66 μM).
Experiments in this Example were performed to determine if there was concentration dependence blockage of the Aβ-induced intracellular calcium response by NAHIS04. A time course of the intracellular free calcium change was taken in FURA-2AM loaded PC12 cells before and after the addition of Aβ (7.66 μM) to media containing different concentrations of NAHIS04. FIG. 11 illustrates that the concentration of the Aβ channel blocker is important and that the most efficient concentration of NAHIS04 for the blockage occurred at >5 μM.

For `N[C@@H](Cc1c[nH]cn1)C(=O)O` [His, L-histidine, reference compound], the “blocking of the flow of ionic charges conducted by Aβ channels” value (from here on “blocking of the flow … by Aβ channels”) (Aβ channel) was “very slow-acting or had almost no channel-blocking capacity” and the “blocking of Aβ channel current activity” value (Aβ channel) was “only affect the current peaks of 5.8 and 4.2 pA; also recorded: mildly reduces the Aβ channel activity”.

For `CC(C)[C@H](NC(=O)[C@H](CCC(=O)O)NC(=O)[C@H](Cc1ccc(O)cc1)NC(=O)CNC(=O)[C@@H](N)CO)C(=O)N[C@@H](Cc1c[nH]cn1)C(=O)N[C@@H](Cc1c[nH]cn1)C(=O)O` [NA4, SGYEVHH, reference compound] (H-SGYEVHH-OH), the “protection of PC12 cells from Aβ cytotoxicity” value (PC12 cells [1]; Example 5, LDH release, three days) was “not as effective at blocking the Aβ channel as NAHIS04”.

`CC(=O)N[C@@H](CO)C(=O)NCC(=O)N[C@@H](Cc1ccc(O)cc1)C(=O)N[C@@H](CCC(=O)O)C(=O)N[C@H](C(=O)N[C@@H](Cc1c[nH]cn1)C(=O)N[C@@H](Cc1c[nH]cn1)C(N)=O)C(C)C` [NA4mod, Ac-SGYEVHH-CONH2] (Ac-SGYEVHH-NH2) was tested, and the “percent protection of PC12 cells from Aβ cytotoxicity” value (PC12 cells [1]; Example 9, cell viability assay (FIG. 13)) was “percent protection is similar to the protection shown by NAHIS04”.

With `CC(=O)N[C@@H](Cc1c[nH]cn1)C(N)=O` [NAHIS01, Ac-His-CONH2] the “blocking of the flow … by Aβ channels” value (Aβ channel) was “does not fully prevent the flow of ionic charges” and the “blocking of Aβ channel current activity” value (Aβ channel) was “more effective at reducing all current peaks at much lower concentrations than unmodified His; also recorded: did not operate as a full channel blocker; also recorded: very efficient at blocking the Aβ ion channel”.

In the case of `CC(=O)N[C@@H](Cc1c[nH]cn1)C(=O)N[C@@H](Cc1c[nH]cn1)C(N)=O` [NAHIS02, Ac-His-His-CONH2], the “concentration required for 50% protection (EC50)” value [2] is reported as “below the micromolar levels”, the “block of Aβ-induced intracellular calcium increase” value (PC12 cells [3]) is reported as “has the capacity to block Aβ-induced intracellular calcium increase” and the “time to reduce the flow of ionic charges through the membrane by 50%” value (Aβ channel) is reported as 125 s. For the same molecule, the “effect on Aβ channel current peaks” value (Aβ channel; 16.66 μM) was “removed all current peaks”, the “time to reduce the Aβ channel activity to occasional channel openings” value (Aβ channel; 16.66 μM) was “several minutes” and the “time to totally block the Aβ channel activity” value (Aβ channel; 16.66 μM) was “less than three”. For the same molecule, the “reversibility of Aβ channel blockage after washing the chamber” value (“reversibility of Aβ channel blockage” below) (Aβ channel) was “reversed; also recorded: some recovery of channel activity” and the “blocking of Aβ channel current activity” value (Aβ channel) was “efficiently block the multiple conductances”.

`CC(=O)N[C@@H](Cc1cncn1C)C(=O)N[C@@H](Cc1cncn1C)C(N)=O` [NAHIS02-(π-Met), Ac-His-π-Met-His-π-Met-CONH2] was tested, and the “block of Aβ-induced intracellular calcium increase” value (PC12 cells [3]) was “has lost this ability”, the “blocking of the flow … by Aβ channels” value (Aβ channel) was “showed no blocking capacity” and the “blocking of Aβ channel current activity” value (Aβ channel) was “did not affect the Aβ channel activity even at a fourfold higher concentration; also recorded: unable to block the Aβ channel activity even at a fourfold higher concentration”. The “protection of PC12 cells against Aβ” value (PC12 cells [1]; Example 6, LDH assay, Aβ40 for 24 hrs) was “did not protect the cells against Aβ”.

`CC(=O)N[C@@H](Cc1c[nH]cn1)C(=O)N[C@@H](Cc1c[nH]cn1)C(=O)N[C@@H](Cc1c[nH]cn1)C(=O)N[C@@H](Cc1c[nH]cn1)C(N)=O` [NAHIS04, Ac-His-His-His-His-CONH2] (Ac-HHHH-NH2) was tested, and the “protection of cells from Aβ cytotoxicity” value [2] was “fully protected the three different types of cells against Aβ”, the “concentration required for 50% protection (EC50)” value [2] was “below the micromolar levels” and the “most efficient concentration for blockage of the Aβ-induced intracellular calcium response” value (PC12 cells [3]; 0.83 to 6.64 μM tested) was over 5 µM. For the same molecule, the “time to reduce the flow of ionic charges through the membrane by 50%” value (Aβ channel) was 15 s, the “effect on Aβ channel current peaks” value (Aβ channel; 16.66 μM) was “removed all current peaks” and the “time to reduce the Aβ channel activity to occasional channel openings” value (Aβ channel; 16.66 μM) was 20 s. The “speed of 50% reduction of ionic charge flow compared to NAHIS02” value (Aβ channel; NAHIS04 versus NAHIS02) was “eightfold”, the “reversibility of Aβ channel blockage” value (Aβ channel) was “irreversible; also recorded: stayed fully blocked after the chamber was washed” and the “blocking of Aβ channel current activity” value (Aβ channel) was “efficiently block the multiple conductances”. The “protection of PC12 cells from Aβ cytotoxicity” value (PC12 cells [1]) was “showed better protection of the cells” and the EC50 (PC12 cells [1]; PC12 cells, LDH release, three days of incubation, read-out: concentration required for 50% protection (EC50)) was under 1000 nM.

With `[Cl][Ni][Cl]` [Ni^2+, NiCl2, reference compound] the “toxicity of the compound to cells” value ([2]; high concentrations) was “cell-dependent toxicity at high concentrations”, the “protection of cells from Aβ cytotoxicity” value [2] was “fully protect the cells against Aβ cytotoxicity” and the “time to block the flow of ionic charges through Aβ channels” value (Aβ channel) was 120 s. The “reversibility of Aβ channel blockage” value (Aβ channel) was “irreversible”, the “reversibility of Aβ channel blockage” value (Aβ channel; listed as nickel) was “irreversibly block” and the “blocking of Aβ channel current activity” value (Aβ channel) was “full block of the channel”.

For `c1c[nH]cn1` [imidazole, reference compound], the EC50 ([2]; Rattus norvegicus, PC-12, 72 h, read-out: concentration required for 50% protection (EC50)) was 2000 to 3000 nM, the “time to block the flow of ionic charges through Aβ channels” value (Aβ channel) was 30 s and the “reversibility of Aβ channel blockage” value (Aβ channel) was “irreversibly block; also recorded: irreversible”. The “blocking of Aβ channel current activity” value (Aβ channel) was “full block of the channel”.
